Data on 21 molecules can be found in patent publication US20100152230A1, “HYDROXY SUBSTITUTED 1H-IMIDAZOPYRIDINES AND METHODS” (Pfizer Inc., priority 2005, published 2010).

SMILES strings stand for the structures. Where a name gives a salt, the structure may show the parent alone. Bounds are passed on as bounds.

A word on the melting point: it is the temperature of the solid-liquid transition.

For the molecule `CCCCCc1cc2c(nc(O)n2Cc2ccccc2)c(N)n1` (as salt: salt) [Example 1, 4-Amino-1-benzyl-6-pentyl-1H-imidazo[4,5-c]pyridin-2-ol], the melting point was 260 to 262 °C.

`CCCCCc1cc2c(nc(O)n2CCc2ccccc2)c(N)n1` [Example 2, 4-Amino-6-pentyl-1-(2-phenylethyl)-1H-imidazo[4,5-c]pyridin-2-ol] registered a melting point of 238 to 240 °C.

In turn, `CCCCCc1cc2c(nc(O)n2CC(C)(C)O)c(N)n1` [Example 3, 4-Amino-1-(2-hydroxy-2-methylpropyl)-6-pentyl-1H-imidazo[4,5-c]pyridin-2-ol] displayed a melting point of 240 to 243 °C.

`CCCCCc1cc2c(nc(O)n2CC2CCOCC2)c(N)n1` [Example 4, 4-Amino-6-pentyl-1-(tetrahydro-2H-pyran-4-ylmethyl)-1H-imidazo[4,5-c]pyridin-2-ol] displayed a melting point of over 250 °C.

The molecule `CCCCCc1cc2c(nc(O)n2Cc2cccnc2)c(N)n1` [Example 5, 4-Amino-6-pentyl-1-(pyridin-3-ylmethyl)-1H-imidazo[4,5-c]pyridin-2-ol] yielded a melting point of 243 to 245 °C.

In turn, `CCCCCc1cc2c(nc(O)n2CCOCCCc2nccs2)c(N)n1` [Example 7] gave a melting point of 177 to 178 °C.

`CCCCCc1cc2c(nc(O)n2CCCNS(C)(=O)=O)c(N)n1` [Example 8, N-[3-(4-Amino-2-hydroxy-6-pentyl-1H-imidazo[4,5-c]pyridin-1-yl)propyl]methanesulfonamide] returned a melting point of 174 to 176 °C.

`CCCCCc1cc2c(nc(O)n2CCCNC(C)=O)c(N)n1` [Example 10, N-[3-(4-Amino-2-hydroxy-6-pentyl-1H-imidazo[4,5-c]pyridin-1-yl)propyl]acetamide] registered a melting point of 189 to 191 °C.

Consider `CCCCCc1cc2c(nc(O)n2CC2CCNCC2)c(N)n1` [Example 11, 4-Amino-6-pentyl-1-(piperidin-4-ylmethyl)-1H-imidazo[4,5-c]pyridin-2-ol], for which the melting point lay in the range of 246 to 249 °C.

Molecule `CCCCCc1cc2c(nc(O)n2CC2CCN(S(C)(=O)=O)CC2)c(N)n1` [Example 12, 4-Amino-1-{[1-(methylsulfonyl)piperidin-4-yl]methyl}-6-pentyl-1H-imidazo[4,5-c]pyridin-2-ol] had a melting point of 228 to 231 °C.

Take `CCCCCc1cc2c(nc(O)n2CC2CCN(C(C)=O)CC2)c(N)n1` [Example 13, 1-[(1-Acetylpiperidin-4-yl)methyl]-4-amino-6-pentyl-1H-imidazo[4,5-c]pyridin-2-ol]: the melting point fell in the range of 228 to 231 °C.

Molecule `CCCCCc1cc2c(nc(O)n2CC2CCN(S(=O)(=O)CC)CC2)c(N)n1` [Example 14, 4-Amino-1-{[1-(ethylsulfonyl)piperidin-4-yl]methyl}-6-pentyl-1H-imidazo[4,5-c]pyridin-2-ol] gave a melting point of 222 to 225 °C.

Molecule `CCCCCc1cc2c(nc(O)n2CC2CCN(C(=O)C3CC3)CC2)c(N)n1` [Example 15, 4-Amino-1-{[1-(cyclopropylcarbonyl)piperidin-4-yl]methyl}-6-pentyl-1H-imidazo[4,5-c]pyridin-2-ol] gave a melting point of 205 to 207 °C.

`CCCCCc1cc2c(nc(O)n2CCCCS(C)(=O)=O)c(N)n1` [Example 16, 4-Amino-1-[4-(methylsulfonyl)butyl]-6-pentyl-1H-imidazo[4,5-c]pyridin-2-ol] came in with a melting point of 188 to 189 °C.

Turning to `CCCCCc1cc2c(nc(O)n2CCS(C)(=O)=O)c(N)n1` [Example 17, 4-Amino-1-[2-(methylsulfonyl)ethyl]-6-pentyl-1H-imidazo[4,5-c]pyridin-2-ol], the melting point lay within 223 to 225 °C.

`CCOCCc1cc2c(nc(O)n2CCCCS(C)(=O)=O)c(N)n1` [Example 18, 4-Amino-6-(2-ethoxyethyl)-1-[4-(methylsulfonyl)butyl]-1H-imidazo[4,5-c]pyridin-2-ol] came in with a melting point of 203 to 206 °C.

As to `Cc1nc(N)c2nc(O)n(Cc3cc(-c4ccc(F)cc4)no3)c2c1C` [Example 19, 4-Amino-1-{[3-(4-fluorophenyl)isoxazol-5-yl]methyl}-6,7-dimethyl-1H-imidazo[4,5-c]pyridin-2-ol], the melting point came to 250 °C.

As to `Cc1cc(Cn2c(O)nc3c(N)nc(C)c(C)c32)on1` [Example 20, 4-Amino-6,7-dimethyl-1-[(3-methylisoxazol-5-yl)methyl]-1H-imidazo[4,5-c]pyridin-2-ol], the melting point is over 300 °C.

`CCCCCc1cc2c(nc(O)n2[C@@H](C)c2ccccc2)c(N)n1` [Example 21, 4-Amino-6-pentyl-1-[(1S)-1-phenylethyl]-1H-imidazo[4,5-c]pyridin-2-ol] returned a melting point of 146.7 to 147.7 °C.

Take `CCCCCc1cc2c(nc(O)n2[C@H](C)c2ccccc2)c(N)n1` [Example 22, 4-Amino-6-pentyl-1-[(1R)-1-phenylethyl]-1H-imidazo[4,5-c]pyridin-2-ol]: the melting point was in the range of 147.1 to 148 °C.

Molecule `CCCCOc1cc2c(nc(O)n2Cc2ccccc2)c(N)n1` [Example 23, 4-amino-1-benzyl-6-butoxy-1H-imidazo[4,5-c]pyridin-2-ol] displayed a melting point of 205 to 208 °C.
